US11633400B2
Blank lines part the entries; values can stand above or below the molecule they belong to.

Columns and labels:
[1] = cited from earlier work; for aqueous solubility: at room temperature, known values
[2] = Water content by TG-FTIR; settings: sample according to Example 1; relative humidity of about 35%
[3] = Hygroscopicity by dynamic water vapor sorption analysis (DVS)

SMILES: CN1c2c([nH]c(N)nc2=O)NC[C@@H]1CNc1ccc(C(=O)N[C@@H](CCC(=O)O)C(=O)O)cc1
solubility in water (in words) ([1]; water): poorly soluble

SMILES: CN1c2c([nH]c(N)nc2=O)NC[C@@H]1CNc1ccc(C(=O)N[C@@H](CCC(=O)[O-])C(=O)[O-])cc1.[Ca+2] [Form I]
aqueous solubility [1]: about 10 mg/ml

water content (TG-FTIR) [2]: about 8.9 % w/w | change of water content ([3]; DVS, range from 20% to 80% relative humidity): about 2% | water adsorption compared with the crystalline polymorphic forms of the calcium salt ([3]; under changing relative humidity): significantly lower
SMILES: CN1c2c(nc(N)[nH]c2=O)NC[C@@H]1CNc1ccc(C(=O)N[C@@H](CCC(=O)O)C(=O)O)cc1.OCCN1CCOCC1

SMILES: CN1c2c([nH]c(N)nc2=O)NC[C@@H]1CNc1ccc(C(=O)N[C@@H](CCC(=O)[O-])C(=O)[O-])cc1.[Ca+2] [calcium salt (Form III)]
aqueous solubility [1]: about 2.5 mg/ml
